Data taken from US7476526B2, “Method of using a gene conferring resistance to 4,5-dihydroxy-2-cyclopenten-1-one (DHCP) and identifying inhibitors of a polypeptide encoded by the gene” (priority 2000, dated 2009).
≈ marks a conversion by molar mass, not a printed value.

Experiments:
[1] = test system: E. coli JM83 cells harboring pUC19; assay: Minimum inhibitory concentrations on LB plates, cells harboring pUC19; type: cell-based; conditions: Escherichia coli, cells with pUC19, 37 °C, 20 h, same for 3.5 × 10^5 and 3.5 × 10^3 cells
Procedure: (§1) The E. coli wild-type cells harboring pUC19 or pSP007 plasmid were grown overnight in LB medium containing ampicillin. The cells were diluted 10- and 1000-times, and 5 µl of each dilution (corresponding to 3.5×10^5 cells and 3.5×10^3 cells, respectively) was spotted on LB plates containing serial dilutions of kanamycin, chloramphenicol, spectinomycin, tetracycline and DHCP. Plates were incubated at 37° C. for 20 h. […] The MIC values for cells harboring pUC19 and pSP007 were same for spectinomycin, chloramphenicol and tetracycline. The MIC value was two times higher for kanamycin for the cells harboring pSP007 than the cells with pUC19. The MIC value for DHCP on the other hand was 8 times higher for the cells-harboring pSP007 than that for the cells with pUC19.
(§2) MICs for both dilutions of the cells (3.5×10^5 and 3.5×10^3) were the same.

[2] = test system: E. coli JM83 cells harboring pSP007; assay: Minimum inhibitory concentrations on LB plates, cells harboring pSP007 (dep, ORF389); type: cell-based, Escherichia coli; conditions: for MIC: Escherichia coli, cells with pSP007, LB plates, 37 °C, 20 h, same for 3.5 × 10^5 and 3.5 × 10^3 cells; for MIC value for cells harboring pSP007 relative to cells with pUC19: pSP007 versus pUC19
Procedure: as §1, §2

[3] = test system: E. coli wild-type strain JM83; assay: Effect of DHCP on the growth of E. coli in LB medium (Klett units); type: cell-based, Escherichia coli; conditions: for effect on growth: LB medium
Procedure: (§3) A. The JM83 cells were grown in LB medium up to Klett unit of 50 and DHCP was added at various concentrations (0-400 µM). After the growth reached to Klett unit of 90-100, cells were diluted with medium containing respective concentrations of DHCP and growth was further monitored. DHCP concentration: 0 . mu.M, open squares; 50 . mu.M, closed diamonds; 100 µM, open circles; 250 . mu.M, open diamonds; 400 . mu.M closed squares. [0023] B. Overnight grown cells of E. coli JM83 were diluted appropriately and plated on LB plates containing different concentrations of DHCP (0-350 . mu.M). The number of colonies on the plate without DHCP was taken as 100% and the other numbers were expressed as relative percentages.
The E. coli wild-type strain JM83 [F^-araΔ (lac-proAB) rpsL(st^r)](Yanisch-Perron et al., 1985) was grown in Luria broth (LB). Media were supplemented with ampicillin (final concentration of 50 . mu.g/ml) whenever required. To check the effect of DHCP on the growth of E. coli, cells grown overnight in LB medium were diluted into fresh LB medium. After the growth reached to the Klett unit of 50, DHCP was added at various concentrations (0-400 . mu.M) and growth was further monitored. After it reached to the Klett unit of 90-100, it was diluted I O-fold into media containing respective concentrations of DHCP. […] In the presence of 400 . mu.M DHCP, cell growth stopped after 4 h of incubation.

[4] = test system: E. coli JM83; assay: Colony formation ability of E. coli on LB plates containing DHCP; type: cell-based, Escherichia coli
Procedure: as §3
To check the colony formation ability of E. coli at various concentrations of DHCP, cells grown overnight in LB medium were diluted appropriately and plated on LB plates containing DHCP (0-350 . mu.M). After incubation at 37. degree. C., the number of colonies on each plate were counted. The number of colonies on the control plate without DHCP was taken as 100% and the other numbers were expressed as relative percentages (FIG. 2B). In the presence of 300 µM DHCP, 100-fold decrease in the colony numbers was observed.

SMILES | MIC [1] | MIC [2] | MIC value for cells harboring pSP007 relative to cells with pUC19 [2] | also measured
NC[C@H]1O[C@H](O[C@H]2[C@H](O)[C@@H](O[C@H]3O[C@H](CO)[C@@H](O)[C@H](N)[C@H]3O)[C@H](N)C[C@@H]2N)[C@H](O)[C@@H](O)[C@@H]1O [kanamycin] | 25 µg/mL (≈ 51.6 µM) | 50 µg/mL (≈ 103 µM) | – | –
O=C1C=CC(O)C1O (stereo not drawn) [DHCP, 4,5-dihydroxy-2-cyclopenten-1-one] | 25 µg/mL (≈ 219 µM) | 200 µg/mL (≈ 1750 µM) | 8 times | effect on growth ([3]; 50 μM DHCP): growth was slowed after 3 h of incubation; time to reach the maximum density ([3]; 50 μM DHCP, similar to that without DHCP): 8 h; effect on growth ([3]; 100 μM DHCP): grew more slowly after 3 h incubation; maximum cell density ([3]; 100 μM DHCP, versus without DHCP): lower than that without DHCP; time after which cells stopped growing ([3]; 250 μM DHCP): 5 h; length of elongated cells (filaments) relative to control cells ([3]; 250 μM DHCP for 8 h, microscopic examination): approximately 15 fold; effect on growth ([3]; 250 μM DHCP): growth was severely impaired after 3 h of incubation; time after which cell growth stopped ([3]; 400 μM DHCP): 4 h; decrease in the colony numbers ([4]; 300 μM DHCP, LB plates, 37 °C): 100 fold; colony formation ([4]; 350 μM DHCP, 1×10^4 cells plated on LB medium): no colonies were obtained; concentration at which DHCP inhibits cell growth ([4]; E. coli): ≥ 350 µM
CN(C)[C@@H]1C(O)=C(C(N)=O)C(=O)[C@@]2(O)C(O)=C3C(=O)c4c(O)cccc4[C@@](C)(O)[C@H]3C[C@@H]12 [tetracycline] | 3.12 µg/mL (≈ 7.03 µM) | 3.12 µg/mL (≈ 7.03 µM) | – | –
O=C(N[C@H](CO)[C@H](O)c1ccc([N+](=O)[O-])cc1)C(Cl)Cl [chloramphenicol] | 6.25 µg/mL (≈ 19.3 µM) | 6.25 µg/mL (≈ 19.3 µM) | same | –
CN[C@@H]1[C@H](O)[C@H](NC)[C@H]2O[C@@]3(O)C(=O)C[C@@H](C)O[C@H]3O[C@@H]2[C@H]1O [spectinomycin] | 12.5 µg/mL (≈ 37.6 µM) | 12.5 µg/mL (≈ 37.6 µM) | same | –
